Data on one molecule can be found in publication PMC3762901, “Cyclic Peptide Inhibitors of the β-Sliding Clamp in Staphylococcus aureus” (PLoS ONE, 2013).

In the assay the test system is recA-lacZ transcriptional fusion (SOS response). As to the kind of experiment: SOS induction, recA-lacZ β-galactosidase. To be noted: 2 μg/ml; after 210 minutes; LB, 37°C. The assay is classed as cell-based, Staphylococcus aureus. How it is done: To test whether the cessation of DNA accumulation was accompanied by induction of the SOS response we measured the effects of both peptides on induction of the recA gene. Strain MTC157 contains a recA-lacZ transcriptional fusion in its chromosome. […] The level of induction was less that that observed for the DNA damaging agent mitomycin C (about 3-fold increase after 210 minutes). It is likely that both peptides results in malfunctioning of the replisome, and this provides the signal for SOS induction in these cells.
Figure 6 Peptide III-5 and III-6 induces the SOS response in S. aureus. S. aureus strain MTH157 (recA::lacZ) was grown exponentially in LB medium at 37°C. At an optical density OD600 = 0.1, Mitomycin C or Peptides III-5/III-6 were added to final concentrations of 2 μg/ml or 50 μg/ml, respectively. At the times indicated, samples were taken and the level of β-galactosidase determined (Materials and Methods).

On to `CO[C@@]12[C@H](COC(N)=O)C3=C(C(=O)C(C)=C(N)C3=O)N1C[C@@H]1N[C@@H]12` [mitomycin C], for which the “Increase in β-galactosidase activity (recA-lacZ)” value was “about 3 fold”.
